Data as given in ChEMBL document CHEMBL3826930, “Antitumor activities of biscoumarin and dihydropyran derivatives” (Bioorg Med Chem Lett, 2016).
Values after ≈ are worked out from the molar mass of the structure shown.

Tests used:
Mus musculus [1] = assay: Acute toxicity in Kunming mouse assessed as physical/abnormal changes in skin at 500 mg/kg, administered as single dose after 14 days; type: organism-based; conditions: in vivo, 336 h
Mus musculus [2] = assay: Acute toxicity in Kunming mouse assessed as tremor induction at 500 mg/kg, administered as single dose after 14 days; type: organism-based; conditions: in vivo, 336 h
HEK293 [3] = assay: Selectivity index, ratio of IC50 for HEK293 cells to IC50 for human PANC1 cells; type: functional
Mus musculus [4] = assay: Acute toxicity in Kunming mouse assessed as physical/abnormal changes in eyes at 500 mg/kg, administered as single dose after 14 days; type: organism-based; conditions: in vivo, 336 h
HEK293 [5] = assay: Selectivity index, ratio of IC50 for HEK293 cells to IC50 for mouse 4T1 cells; type: functional
Mus musculus [6] = assay: Acute toxicity in Kunming mouse assessed as survival at 500 mg/kg, administered as single dose measured on day 14 post dose; type: organism-based; conditions: in vivo
Mus musculus [7] = assay: Acute toxicity in Kunming mouse assessed as behavior pattern abnormality at 500 mg/kg, administered as single dose after 14 days; type: organism-based; conditions: in vivo, 336 h
Mus musculus [8] = assay: Acute toxicity in Kunming mouse assessed as structural abnormality in liver at 500 mg/kg, administered as single dose after 14 days by hematoxylin and eosin staining based histological analysis; type: organism-based; conditions: in vivo, 336 h
4T1 [9] = assay: Selectivity index, ratio of IC50 for HUVEC to IC50 for mouse 4T1 cells
[10] = Antiproliferative activity against human HuTu 80 cells after 48 hrs by MTT assay; type: functional, cell-based; conditions: HuTu80, 48 h
Mus musculus [11] = assay: Acute toxicity in Kunming mouse assessed as sleep pattern abnormality at 500 mg/kg, administered as single dose after 14 days; type: organism-based; conditions: in vivo, 336 h
PANC-1 = assay: Selectivity index, ratio of IC50 for HUVEC to IC50 for human PANC1 cells
Mus musculus [12] = assay: Acute toxicity in Kunming mouse assessed as physical/abnormal changes in mucus membrane at 500 mg/kg, administered as single dose after 14 days; type: organism-based; conditions: in vivo, 336 h
Mus musculus [13] = assay: Acute toxicity in Kunming mouse assessed as structural abnormality in kidney at 500 mg/kg, administered as single dose after 14 days by hematoxylin and eosin staining based histological analysis; type: organism-based; conditions: in vivo, 336 h
4T1 [14] = assay: Antiproliferative activity against mouse 4T1 cells after 48 hrs by MTT assay; type: functional, cell-based; conditions: 4T1, 48 h
HEK293 [15] = assay: (§1) Cytotoxicity against HEK293 cells assessed as reduction in cell survival after 48 hrs by MTT assay; type: cell-based, Homo sapiens; conditions: Homo sapiens, HEK293, 48 h
[16] = as §1; type: cell-based, Homo sapiens; conditions: human, HEK293 cells
Mus musculus [17] = assay: Acute toxicity in Kunming mouse assessed as induction of salivation at 500 mg/kg, administered as single dose after 14 days; type: organism-based; conditions: in vivo, 336 h
[18] = (§2) Cytotoxicity against HUVEC assessed as reduction in cell survival after 48 hrs by MTT assay; type: cell-based, Homo sapiens; conditions: human, HUVEC cells
HUVEC = assay: as §2; type: cell-based, Homo sapiens; conditions: Homo sapiens, HUVEC, 48 h
HuTu80 = assay: Selectivity index, ratio of IC50 for HUVEC to IC50 for human HuTu 80 cells
HEK293 [19] = assay: Selectivity index, ratio of IC50 for HEK293 cells to IC50 for human HuTu 80 cells; type: functional
[20] = Antiproliferative activity against human PANC1 cells after 48 hrs by MTT assay; type: functional, cell-based; conditions: PANC-1, 48 h
Mus musculus [21] = assay: Acute toxicity in Kunming mouse assessed as physical/abnormal changes in fur at 500 mg/kg, administered as single dose after 14 days; type: organism-based; conditions: in vivo, 336 h

Row | SMILES | Activity (Mus musculus [1]) | Activity (Mus musculus [2]) | Ratio IC50 (HEK293 [3]) | Activity (Mus musculus [4]) | Ratio IC50 (HEK293 [5]) | Activity (Mus musculus [6]) | Activity (Mus musculus [7]) | Activity (Mus musculus [8]) | Ratio IC50 (4T1 [9]) | IC50 [10] | IC90 [10] | Activity (Mus musculus [11]) | Ratio IC50 (PANC-1) | Activity (Mus musculus [12]) | Activity (Mus musculus [13]) | IC50 (4T1 [14]) | IC90 (4T1 [14]) | IC50 (HEK293 [15]) | IC50 [20] | IC90 [20] | further results
1 | COc1ccccc1C(c1c(O)c2ccccc2oc1=O)c1c(O)c2ccccc2oc1=O | Non-toxic | Non-toxic | 1.9 | Non-toxic | 2.2 | Non-toxic | Non-toxic | Non-toxic | 2.3 | 17.9 mg/L (≈ 40.5 µM) | 110 mg/L (≈ 248 µM) | Non-toxic | 1.9 | Non-toxic | Non-toxic | 52.2 mg/L (≈ 118 µM) | 133 mg/L (≈ 301 µM) | 117 mg/L (≈ 264 µM) | 62.1 mg/L (≈ 140 µM) | 110 mg/L (≈ 249 µM) | IC90 at 48 h [16]: 282 mg/L (≈ 638 µM); Activity (Mus musculus [17]): Non-toxic; IC90 at 48 h [18]: 269 mg/L (≈ 607 µM); IC50 (HUVEC): 119 mg/L (≈ 270 µM); Ratio IC50 (HuTu80): 6.7; Ratio IC50 (HEK293 [19]): 6.5; Activity (Mus musculus [21]): Non-toxic
2 | N#CC1=C(N)Oc2c(c(=O)oc3ccccc23)C1c1ccc(C#N)cc1 (stereo unspecified) |  |  |  |  |  |  |  |  |  | > 300 mg/L | > 500 mg/L |  |  |  |  | > 300 mg/L | > 500 mg/L |  | > 300 mg/L | > 500 mg/L | 
3 | COc1cccc(C2C(C#N)=C(N)OC3=C2C(=O)CC(C)(C)C3)c1 (stereo unspecified) |  |  |  |  |  |  |  |  |  | 283 mg/L (≈ 873 µM) | > 500 mg/L |  |  |  |  | 248 mg/L (≈ 764 µM) | > 500 mg/L |  | > 300 mg/L | > 500 mg/L | 
4 | N#CC1=C(N)Oc2c(c(=O)oc3ccccc23)C1c1ccc(Br)cc1 (stereo unspecified) |  |  |  |  |  |  |  |  |  | > 300 mg/L | 447 mg/L (≈ 1130 µM) |  |  |  |  | > 300 mg/L | > 500 mg/L |  | > 300 mg/L | > 500 mg/L | 
5 | CC(C)(C)c1ccc(C2C(C#N)=C(N)OC3=C2C(=O)CC3)cc1 (stereo unspecified) |  |  |  |  |  |  |  |  |  | 103 mg/L (≈ 334 µM) | 233 mg/L (≈ 757 µM) |  |  |  |  | 117 mg/L (≈ 378 µM) | 288 mg/L (≈ 936 µM) |  | 219 mg/L (≈ 711 µM) | 435 mg/L (≈ 1410 µM) | 
6 | N#Cc1ccc(C(c2c(O)c3ccccc3oc2=O)c2c(O)c3ccccc3oc2=O)cc1 | Non-toxic | Non-toxic | 1.9 | Non-toxic | 3.5 | Non-toxic | Non-toxic | Non-toxic | 3.1 | 47.6 mg/L (≈ 109 µM) | 98.3 mg/L (≈ 225 µM) | Non-toxic | 1.73 | Non-toxic | Non-toxic | 51.5 mg/L (≈ 118 µM) | 102 mg/L (≈ 233 µM) | 180 mg/L (≈ 411 µM) | 93.5 mg/L (≈ 214 µM) | 202 mg/L (≈ 461 µM) | IC90 at 48 h [16]: 343 mg/L (≈ 783 µM); Activity (Mus musculus [17]): Non-toxic; IC90 at 48 h [18]: 322 mg/L (≈ 735 µM); IC50 (HUVEC): 162 mg/L (≈ 371 µM); Ratio IC50 (HuTu80): 3.4; Ratio IC50 (HEK293 [19]): 3.8; Activity (Mus musculus [21]): Non-toxic
7 | CC1(C)CC(=O)C2=C(C1)OC(N)=C(C#N)C2c1cc(F)c(F)c(F)c1 (stereo unspecified) |  |  |  |  |  |  |  |  |  | 297 mg/L (≈ 854 µM) | > 500 mg/L |  |  |  |  | 241 mg/L (≈ 692 µM) | > 500 mg/L |  | 283 mg/L (≈ 812 µM) | > 500 mg/L | 
8 | COc1ccc(C(c2c(O)c3ccccc3oc2=O)c2c(O)c3ccccc3oc2=O)cc1 | Non-toxic | Non-toxic | 3.9 | Non-toxic | 1.9 | Non-toxic | Non-toxic | Non-toxic | 2.3 | 53.8 mg/L (≈ 122 µM) | 103 mg/L (≈ 233 µM) | Non-toxic | 4.7 | Non-toxic | Non-toxic | 85.7 mg/L (≈ 194 µM) | 167 mg/L (≈ 377 µM) | 165 mg/L (≈ 373 µM) | 42.5 mg/L (≈ 96.1 µM) | 82.5 mg/L (≈ 186 µM) | IC90 at 48 h [16]: 322 mg/L (≈ 727 µM); Activity (Mus musculus [17]): Non-toxic; IC90 at 48 h [18]: 363 mg/L (≈ 821 µM); IC50 (HUVEC): 199 mg/L (≈ 450 µM); Ratio IC50 (HuTu80): 3.7; Ratio IC50 (HEK293 [19]): 3.1; Activity (Mus musculus [21]): Non-toxic
